Experimental findings from patent US9777008B2, “PRMT5 inhibitors and uses thereof” (Epizyme, Inc., priority 2012, dated 2017) are described below.

The target in test [1] is PRMT5/MEP50 (Homo sapiens (Human), UniProt O14744). Nature of the test: PRMT5 Biochemical Assay (PRMT5/MEP50 enzyme assay on peptide substrate, 3H-SAM Flashplate). The source says: S-adenosylmethionine (SAM), S-adenosylhomocysteine (SAH), bicine, KCl, Tween20, dimethylsulfoxide (DMSO), bovine skin gelatin (BSG), and Tris(2-carboxyethyl)phosphine hydrochloride solution (TCEP) were purchased from Sigma-Aldrich at the highest level of purity possible. ^3H-SAM was purchase from American Radiolabeled Chemicals with a specific activity of 80 Ci/mmol. 384-well streptavidin Flashplates were purchased from PerkinElmer.
Peptide representative of human histone H4 residues 1-15 was synthesized with a C-terminal linker-affinity tag motif and a C-terminal amide cap by 21st Century Biochemicals. The peptide was high high-performance liquid chromatography (HPLC) purified to greater than 95% purity and confirmed by liquid chromatography mass spectrometry (LC-MS). The sequence was Ac-[…][K-Biot]-amide (SEQ ID NO.:3).
Molecular Biology: Full-length human PRMT5 (NM_006109.3) transcript variant 1 clone was amplified from a fetal brain cDNA library, incorporating flanking 5′ sequence encoding a FLAG tag ([…]) (SEQ ID NO.:4) fused directly to Ala 2 of PRMT5. Full-length human MEP50 (NM_024102) clone was amplified from a human testis cDNA library incorporating a 5′ sequence encoding a 6-histidine tag (MHHHHHH) (SEQ ID NO.:5) fused directly to Arg 2 of MEP50. The amplified genes were sublconed into pENTR/D/TEV (Life Technologies) and subsequently transferred by Gateway™ attL×attR recombination to pDEST8 baculvirus expression vector (Life Technologies).
Recombinant baculovirus and Baculovirus-Infected Insect Cells (BIIC) were generated according to Bac-to-Bac kit instructions (Life Technologies) and Wasilko, 2006, respectively. Protein over-expression was accomplished by infecting exponentially growing Spodoptera frugiperda (SF9) cell culture at 1.2×10^6 cell/ml with a 5000 fold dilution of BIIC stock. Infections were carried out at 27° C. for 72 hours, harvested by centrifugation, and stored at −80° C. for purification.
Flag-PRMT5/6His-MeP50 was eluted with 300 mM Imidazole in the same buffer. The purity of recovered protein was 87%. Reference: Wasilko, D. J. and S. E. Lee: “TIPS: titerless infected-cells preservation and scale-up” Bioprocess J., 5 (2006), pp. 29-32.
General Procedure for PRMT5/MEP50 Enzyme Assays on Peptide Substrates.
The assays were all performed in a buffer consisting of 20 mM Bicine (pH=7.6), 1 mM TCEP, 0.005% BSG, and 0.002% Tween20, prepared on the day of use. Compounds in 100% DMSO (1 ul) were spotted into a polypropylene 384-well V-bottom plates (Greiner) using a Platemate Plus outfitted with a 384-channel head (Thermo Scientific). DMSO (1 ul) was added to Columns 11, 12, 23, 24, rows A-H for the maximum signal control and 1 ul of SAH, a known product and inhibitor of PRMT5/MEP50, was added to columns 11, 12, 23, 24, rows I-P for the minimum signal control. A cocktail (40 ul) containing the PRMT5/MEP50 enzyme and the peptide was added by Multidrop Combi (Thermo-Fisher). The compounds were allowed to incubate with PRMT5/MEP50 for 30 min at 25 degrees Celsius, then a cocktail (10 ul) containing ^3H-SAM was added to initiate the reaction (final volume=51 ul). The final concentrations of the components were as follows: PRMT5/MEP50 was 4 nM, ^3H-SAM was 75 nM, peptide was 40 nM, SAH in the minimum signal control wells was 100 uM, and the DMSO concentration was 1%. The assays were stopped by the addition of non-radioactive SAM (10 ul) to a final concentration of 600 uM, which dilutes the ^3H-SAM to a level where its incorporation into the peptide substrate is no longer detectable. 50 ul of the reaction in the 384-well polypropylene plate was then transferred to a 384-well Flashplate and the biotinylated peptides were allowed to bind to the streptavidin surface for at least 1 hour before being washed three times with 0.1% Tween20 in a Biotek ELx405 plate washer. […]

Test [2] concerns symmetric di-methyl arginine in Z-138 cells. The test can be described thus: Z-138 Methylation Assay (In Cell Western for symmetric di-methyl arginine and DNA content). It is filed as cell-based. The note with it: Homo sapiens, read-out: ICW EC50. The source says:
[formula] [formula] Where top and bottom are the normally allowed to float, but may be fixed at 100 or 0 respectively in a 3-parameter fit. The Hill Coefficient normally allowed to float but may also be fixed at 1 in a 3-parameter fit. Y is the % inhibition and X is the compound concentration. Z-138 Methylation Assay
Z-138 suspension cells were purchased from ATCC (American Type Culture Collection, Manassas, Va.). RPMI/Glutamax medium, penicillin-streptomycin, heat inactivated fetal bovine serum, and D-PBS were purchased from Life Technologies, Grand Island, N.Y., USA. Odyssey blocking buffer, 800CW goat anti-rabbit IgG (H+L) antibody, and Licor Odyssey infrared scanner were purchased from Licor Biosciences, Lincoln, Nebr., USA. Symmetric di-methyl arginine antibody was purchased from EMD Millipore, Billerica, Mass., USA. 16% Paraformaldehyde was purchased from Electron Microscopy Sciences, Hatfield, Pa., USA. Z-138 suspension cells were maintained in growth medium (RPMI 1640 supplemented with 10% v/v heat inactivated fetal bovine serum and 100 units/mL penicillin-streptomycin) and cultured at 37° C. under 5% CO2.
Cell Treatment, in Cell Western (ICW) for Detection of Symmetric Di-Methyl Arginine and DNA Content.
Z-138 cells were seeded in assay medium at a concentration of 50,000 cells per mL to a 384-well cell culture plate with 50 μL per well. Compound (100 nL) from 384 well source plates was added directly to 384 well cell plate. Plates were incubated at 37° C., 5% CO2 for 96 hours. […]
First, the ratio for each well was determined by:
Each plate included fourteen control wells of DMSO only treatment (minimum inhibition) as well as fourteen control wells for maximum inhibition treated with 3 μM of a reference compound (Background wells). The average of the ratio values for each control type was calculated and used to determine the percent inhibition for each test well in the plate. […] Percent inhibition was determined and IC50 curves were generated using triplicate wells per concentration of compound. […]

Chain of PRMT5/MEP50 (O14744 other isoform, or with tags, fused parts or gaps): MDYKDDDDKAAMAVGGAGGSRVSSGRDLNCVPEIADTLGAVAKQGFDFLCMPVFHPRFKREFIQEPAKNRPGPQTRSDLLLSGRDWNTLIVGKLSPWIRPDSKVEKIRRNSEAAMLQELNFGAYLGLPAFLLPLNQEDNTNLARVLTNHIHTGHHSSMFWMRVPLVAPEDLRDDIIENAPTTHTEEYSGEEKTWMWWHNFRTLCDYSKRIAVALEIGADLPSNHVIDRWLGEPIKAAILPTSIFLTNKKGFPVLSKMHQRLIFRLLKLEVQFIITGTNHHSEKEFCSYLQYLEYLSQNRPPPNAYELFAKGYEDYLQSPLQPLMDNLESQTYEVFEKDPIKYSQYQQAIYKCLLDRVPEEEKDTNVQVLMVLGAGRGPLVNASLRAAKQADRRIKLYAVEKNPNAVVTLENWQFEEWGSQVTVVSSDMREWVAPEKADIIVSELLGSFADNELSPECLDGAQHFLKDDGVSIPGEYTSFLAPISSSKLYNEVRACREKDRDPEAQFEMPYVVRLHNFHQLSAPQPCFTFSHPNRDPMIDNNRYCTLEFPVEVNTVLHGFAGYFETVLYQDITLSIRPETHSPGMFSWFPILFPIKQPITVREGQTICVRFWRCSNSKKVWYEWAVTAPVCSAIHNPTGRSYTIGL
Chain of PRMT5/MEP50 (Q9BQA1 other isoform, or with tags, fused parts or gaps partner): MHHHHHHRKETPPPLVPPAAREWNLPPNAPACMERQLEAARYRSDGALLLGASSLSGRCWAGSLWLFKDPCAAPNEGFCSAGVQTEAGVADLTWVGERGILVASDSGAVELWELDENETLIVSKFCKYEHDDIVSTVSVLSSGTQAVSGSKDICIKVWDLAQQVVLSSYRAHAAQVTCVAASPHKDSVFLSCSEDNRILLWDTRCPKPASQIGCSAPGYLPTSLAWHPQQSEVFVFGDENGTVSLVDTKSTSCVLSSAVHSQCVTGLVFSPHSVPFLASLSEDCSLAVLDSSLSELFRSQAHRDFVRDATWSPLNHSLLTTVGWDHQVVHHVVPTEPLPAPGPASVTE

As for `O=C(Nc1cccc(OCC(O)CN2CCc3ccccc3C2)c1)c1cccnc1` (centres unmarked) [Compound 163], the IC50 in test [1] lay in the range of 1 to 10 µM. Further, the half-maximal effective concentration (EC50) in test [2] is 1 to 10 µM.

The term IC50 denotes the concentration that gives 50% inhibition. What is called EC50 is the concentration giving half of the maximal effect.
